One data set relates to COV318 cells. Put plainly: Cell cycle by EdU flow cytometry. The data set is classed as cell-based, human. The following applies: 10 nM to 10 μM, 24 hours. The procedure: Cells were plated at 100,000 cells/well in Corning 6 cm tissue culture treated plates. […] Cells were collected and fixed in 1% paraformaldehyde. Cells were incubated with Alexa488 azide dye as described by Thermo Scientific. Cells were then incubated with […]-violet and RNase. Cells were analyzed on a BD Celesta and data compiled using FloJo and GraphPad.
For orientation: In flow cytometry, cells or beads pass a laser one at a time.

Data set [1] has as its system T47D human breast carcinoma cells. Put plainly: Crystal violet colony assay. The data set is classed as cell-based. The procedure: (§1) The T47D human breast carcinoma cell line was grown in RPMI-1640/1× Glutamax/1× Insulin/10% fetal bovine serum and was plated at 10,000 cells/well in Corning 6-well tissue culture treated plates. Cells were incubated at 37° C. for 24 hours prior to addition of treatment. […] Plates were collected at week 2 and 3, at week 3, 2 plates with only palbociclib were switched to combination treatment. The remaining plates were collected at weeks 5 and 8. Collection was performed by washing wells with PBS before incubating 5 minutes with 0.1% crystal violet/20% methanol. Dye was removed and wells washed 4 times with PBS before being scanned at 1200 dpi. Image J was used to count the % area and colony size for each well (FIG. 8F-I). GraphPad Prism was used for analysis. Cells treated with DMSO control retained large colonies that inhabited the majority of the well surface area from week 3 beyond (FIG. 8F).
as §1, with “6 well tissue culture treated plates. The BT474 human breast carcinoma cell line was grown in DMEM/1× Glutamax/1× Insulin/10% fetal bovine serum and was plated at 25,000 cells/well in Corning 6 well” for “6-well”, “CDK4/6i” for “palbociclib”, “well. Graph pad” for “well (FIG. 8F-I). GraphPad Prism”, “analysis.” for “analysis. Cells treated with DMSO control retained large colonies that inhabited the majority of the well surface area from week 3 beyond (FIG. 8F).”
The T47D human breast carcinoma cell line was grown in RPMI-1640/1× Glutamax/1× Insulin/10% fetal bovine serum and was plated at 10,000 cells/well in Corning 6 well tissue culture treated plates. Cells were incubated at 37° C. for 24 hours prior to addition of treatment. […] Plates were collected at weeks 2 and 3. Collection was performed by washing wells with PBS before incubating 5 minutes with 0.1% crystal violet/20% methanol. Dye was removed and wells washed 4 times with PBS before being scanned at 1200 dpi. Image J was used to count the percent area and colony size for each well and Graph pad was used for analysis.

The nature of data set [2]: Respiratory safety pharmacology study. The following applies: any dose level. It counts as in vivo, rats. From the text:
Safety pharmacology studies described more fully below included a functional observational battery (FOB) testing in a 28-day repeat-dose toxicity study in rats, electrocardiogram (ECG) evaluations in a 28-day repeat-dose toxicity study in dogs, and a single-dose respiratory safety pharmacology study in rats.

Data set [3] relates to OVCAR-3 cell loaded Hollow Fibers. Put plainly: Mouse hollow fiber assay (CellTiter Glo). The data set is classed as in vivo, mice. The note with it: 75, 100, 150 mg/kg twice daily, Day 16. The procedure: The mouse hollow fiber assay was conducted using three tumor cell lines, OVCAR-3 (ovarian), MKN-1 (gastric), and HCC-1569 (breast), 1e7 OVCAR-3, 5e6 MKN-1, and 1e7 HCC-1569 cells were loaded into Hollow Fibers, placed in cell culture dishes containing RPMI-1640 with 20% FCS and 1% penicillin/streptomycin, and were equilibrated in an incubator at 37 C, 5% CO2 overnight. On Day 0, three fibers were implanted in two different compartments: subcutaneous and intraperitoneal of twenty-four female NMRI nude mice ages 4-5 weeks. […] Female NMRI nude mice were implanted both subcutaneously and intraperitoneally with HCC-1569, MKN1, and OVCAR3 tumor cell-loaded Hollow Fibers on Day 0. The number of animals alive on Day 0 (implantation) and on Day 16 (necropsy) in each group is shown in parentheses in the legend.
OVCAR-3 cell loaded Hollow Fibers were implanted both subcutaneously and intraperitoneally into female NMRI nude mice on Day 0. Hollow Fibers were collected during necropsy on Day 16 and analyzed using a CellTiter Glo® assay.
For orientation: In ATP-based viability assays light output follows the ATP content of the culture.

In data set [4] the test system is BALB/c-3T3 mouse fibroblasts. Kind of data set: In vitro 3T3 NRU phototoxicity test. The note with it: UVA 2.5 J/cm^2 vs dark, Neutral Red. The data set is classed as cell-based. The procedure:
BALB/c-3T3 mouse fibroblasts (ATCC) were seeded in 96-well plates at 15,000 cells per well, and grown for 24 hr in DMEM supplemented with 10% FBS, 100 U/mL penicillin, and 100 mg/L streptomycin at 37° C., humidified with 5% CO2.
All test articles were solubilized and serially diluted in DMSO, with the exception of histidine, which was solubilized and diluted in HBSS. All DMSO stocks were diluted in HBSS at the final testing concentrations. The final concentration of DMSO for all test articles was 1%. At the start of the assay, the growth medium was removed from the plates and replaced with test article dilutions. Six replicates were used for each concentration and two plates were prepared for each test article. The cells were incubated in the dark at 37° C., humidified with 5% CO2 with test articles for 1 hr. After the 1 hr incubation period, one plate of each test article was exposed to UVA light, 2.5 J/cm^2 over 18 min which is sufficient to induce a phototoxic response, while the second plate was incubated in the dark at room temperature for the same period of time. At the end of this incubation period, both plates were washed with PBS and fresh medium was added to each well. The plates were incubated at 37° C., humidified with 5% CO2 overnight. […] Cellular Neutral Red was measured by its absorbance at 540 nm.

The subject of the next data set is CYP2B6 transcription. Put plainly: CYP induction (transcription). The data set is classed as in vitro ADME. The following applies: up to 3 μM, 24 hours.

Entries after “also recorded” stand apart in the source; their conditions may differ.

Consider one compound from patent US20250199015A1, “CYCLIN-DEPENDENT KINASE 2 INHIBITORS FOR MEDICAL TREATMENT” (INCYCLIX BIO, LLC, priority 2022, published 2025).

For `NS(=O)(=O)c1ccc(Nc2ncc3cc4n(c3n2)C2(CCCCC2)C(=O)NN4)cc1` [Compound I], the “cell cycle distribution with increasing concentrations” value with COV318 cells was “exit the S-phase and increasingly occupy the G0-G1 phase”. In data set [1] (100 nM Compound I + 1 nM Fulvestrant, weeks 2 and 3), the “growth with combination of fulvestrant and Compound I” value is recorded as “reduced growth of cells”. Moreover, in data set [1] (300 nM each, 8 weeks), the “growth with both Compound I and a CDK4/6i” value is listed as “no noticeable growth after 8 weeks”. The “time to CDK4/6i resistance” value in data set [1] (300 nM with palbociclib or abemaciclib, up to 8 weeks) is on record as “prolonged the time to CDK4/6i resistance”. Moreover, the “colony size and percent plate area” value in data set [1] (300 nM, weeks 2-8) was “substantially reduced colony size”. For the same compound, in data set [2], the respiratory function entry is recorded as “did not affect; also recorded: not affected”. The “tumor bioluminescence signal (CellTiter Glo) of Hollow Fibers” value in data set [3] is “significant reduction”. Also, the phototoxicity result in data set [4] was “negative for causing phototoxicity”. The “induction of CYP2B6 transcription” value in the data set with CYP2B6 transcription is “no observed induction”.
